Source: patent US20170190671A1, “BIS(ARYL)CATECHOL DERIVATIVES AS HERBICIDES” (E I DU PONT DE NEMOURS AND COMPANY, priority 2014, published 2017)

Experiments:
Assay type in all cases: in vivo
kochia (Kochia scoparia) [1] = assay: Test A preemergence; details: Bassia scoparia, pre-emergence, 240 h, 0 to 100 scale (0 no effect, 100 complete control), read-out: Kochia plant response rating
Method in brief: (§1)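 Compounds in non-phytotoxic solvent with surfactant applied as soil spray preemergence, or postemergence to plants 2-10 cm at one- to two-leaf stage, in loam/sand. After approximately 10 days in greenhouse, injury rated visually versus untreated controls, 0 (no effect) to 100 (complete control).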

[2] = tested on: Italian ryegrass (Lolium multiflorum); assay: Test A preemergence; details: Lolium multiflorum, pre-emergence, 240 h, 0 to 100 scale (0 no effect, 100 complete control), read-out: Ryegrass, Italian plant response rating
Method in brief: as §1

[3] = tested on: giant foxtail (Setaria faberii); assay: Test A preemergence; details: Setaria faberi, pre-emergence, 240 h, 0 to 100 scale (0 no effect, 100 complete control), read-out: Foxtail, Giant plant response rating
Method in brief: as §1

[4] = tested on: barnyardgrass (Echinochloa crus-galli); assay: Test A preemergence; details: Echinochloa crus-galli, pre-emergence, 240 h
Method in brief: as §1

[5] = tested on: ragweed (common ragweed, Ambrosia elatior); assay: Test A preemergence; details: Ambrosia artemisiifolia, pre-emergence, 240 h, 0 to 100 scale (0 no effect, 100 complete control), read-out: Ragweed plant response rating
Method in brief: as §1

[6] = tested on: pigweed (Amaranthus retroflexus); assay: Test A preemergence; details: Amaranthus retroflexus, pre-emergence, 240 h, 0 to 100 scale (0 no effect, 100 complete control), read-out: Pigweed plant response rating
Method in brief: as §1

kochia (Kochia scoparia) [7] = assay: Test A postemergence; details: Bassia scoparia, post-emergence, 240 h, 0 to 100 scale, read-out: Plant response rating, Kochia
Method in brief: as §1

[8] = tested on: Italian ryegrass (Lolium multiflorum); assay: Test A postemergence; details: Lolium multiflorum, post-emergence, 240 h, 0 to 100 scale, read-out: Plant response rating, Ryegrass, Italian
Method in brief: as §1

[9] = tested on: giant foxtail (Setaria faberii); assay: Test A postemergence; details: Setaria faberi, post-emergence, 240 h, 0 to 100 scale, read-out: Plant response rating, Foxtail, Giant
Method in brief: as §1

[10] = tested on: galium (catchweed bedstraw, Galium aparine); assay: Test A postemergence; details: Galium, post-emergence, 240 h, 0 to 100 scale, read-out: Plant response rating, Galium
Method in brief: as §1

[11] = tested on: barnyardgrass (Echinochloa crus-galli); assay: Test A postemergence; details: Echinochloa crus-galli, post-emergence, 240 h, 0 to 100 scale, read-out: Plant response rating, Barnyardgrass
Method in brief: as §1

[12] = tested on: wheat (Triticum aestivum); assay: Test A postemergence; details: Triticum aestivum, post-emergence, 240 h, 0 to 100 scale, read-out: Plant response rating, Wheat
Method in brief: as §1

[13] = tested on: blackgrass (Alopecurus myosuroides); assay: Test A postemergence; details: Alopecurus myosuroides, post-emergence, 240 h, 0 to 100 scale, read-out: Plant response rating, Blackgrass
Method in brief: as §1

corn (Zea mays) = assay: Test A postemergence; details: Zea mays, post-emergence, 240 h, 0 to 100 scale
Method in brief: as §1

[14] = tested on: ragweed (common ragweed, Ambrosia elatior); assay: Test A postemergence; details: Ambrosia artemisiifolia, post-emergence, 240 h, 0 to 100 scale, read-out: Plant response rating, Ragweed
Method in brief: as §1

[15] = tested on: pigweed (Amaranthus retroflexus); assay: Test A postemergence; details: Amaranthus retroflexus, post-emergence, 240 h, 0 to 100 scale, read-out: Plant response rating, Pigweed
Method in brief: as §1

[16] = tested on: sedge, umbrella (small-flower umbrella sedge, Cyperus difformis); assay: Test B flooded paddy; details: Cyperus difformis, 336 h; 250 g ai/ha, Flood, 13 to 15 days, scale 0 (no effect) to 100 (complete control); read-out: Plant response rating, Sedge, Umbrella
Method in brief: (§2)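 Test compounds are applied straight into paddy water held 3 cm above the soil surface, with that flood maintained for the whole test. After 13 to 15 days in the greenhouse, each species is scored visually relative to controls.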

[17] = tested on: barnyardgrass (Echinochloa crus-galli); assay: Test B flooded paddy; details: Echinochloa crus-galli, 336 h; 250 g ai/ha, Flood, 13 to 15 days, scale 0 (no effect) to 100 (complete control); read-out: Plant response rating, Barnyardgrass
Method in brief: as §2

[18] = tested on: ducksalad (Heteranthera limosa); assay: Test B flooded paddy; details: Heteranthera limosa, 336 h; 250 g ai/ha, Flood, 13 to 15 days, scale 0 (no effect) to 100 (complete control); read-out: Plant response rating, Ducksalad
Method in brief: as §2

rice (Oryza sativa) = assay: Test B flooded paddy; details: Oryza sativa, 336 h; 250 g ai/ha, Flood, 13 to 15 days, scale 0 (no effect) to 100 (complete control); read-out: Plant response rating, Rice
Method in brief: as §2

N#Cc1cccc(Oc2ncc(Cl)cn2)c1Oc1ccc(Br)cn1 [Compound 15]
0%: pest or weed control at 31 g/ha ([2]; 31 g ai/ha) | pest or weed control at 31 g/ha ([4]; 31 g ai/ha, 0 to 100 scale (0 no effect, 100 complete control), read-out: Barnyardgrass plant response rating) | pest or weed control at 31 g/ha ([5]; 31 g ai/ha) | pest or weed control at 125 g/ha ([5]; 125 g ai/ha) | pest or weed control at 31 g/ha ([8]; 31 g ai/ha) | pest or weed control at 31 g/ha ([11]; 31 g ai/ha) | plant injury at 31 g/ha ([12]; 31 g ai/ha) | pest or weed control at 31 g/ha ([13]; 31 g ai/ha) | pest or weed control at 250 g/ha [17] | plant injury at 250 g/ha (rice (Oryza sativa))
40%: pest or weed control at 31 g/ha (kochia (Kochia scoparia) [7]; 31 g ai/ha)
60%: pest or weed control at 31 g/ha ([3]; 31 g ai/ha) | pest or weed control at 125 g/ha ([4]; 125 g ai/ha, 0 to 100 scale, read-out: Plant response rating, Barnyardgrass)
10%: pest or weed control at 125 g/ha ([2]; 125 g ai/ha) | plant injury at 125 g/ha ([12]; 125 g ai/ha) | Corn plant response rating (crop injury, 0 = no effect, 100 = complete kill) at 31 g/ha (corn (Zea mays); 31 g ai/ha) | Corn plant response rating (crop injury, 0 = no effect, 100 = complete kill) at 125 g/ha (corn (Zea mays); 125 g ai/ha) | pest or weed control at 31 g/ha ([14]; 31 g ai/ha) | pest or weed control at 125 g/ha ([14]; 125 g ai/ha)
90%: pest or weed control at 31 g/ha (kochia (Kochia scoparia) [1]; 31 g ai/ha) | pest or weed control at 125 g/ha (kochia (Kochia scoparia) [7]; 125 g ai/ha) | pest or weed control at 125 g/ha ([9]; 125 g ai/ha) | pest or weed control at 125 g/ha ([10]; 125 g ai/ha) | pest or weed control at 250 g/ha [16]
75%: pest or weed control at 250 g/ha [18]
100%: pest or weed control at 125 g/ha (kochia (Kochia scoparia) [1]; 125 g ai/ha) | pest or weed control at 125 g/ha ([3]; 125 g ai/ha) | pest or weed control at 125 g/ha ([6]; 125 g ai/ha) | pest or weed control at 31 g/ha ([15]; 31 g ai/ha) | pest or weed control at 125 g/ha ([15]; 125 g ai/ha)
80%: pest or weed control at 31 g/ha ([6]; 31 g ai/ha)
70%: pest or weed control at 125 g/ha ([13]; 125 g ai/ha)
20%: pest or weed control at 31 g/ha ([9]; 31 g ai/ha) | pest or weed control at 125 g/ha ([11]; 125 g ai/ha)
50%: pest or weed control at 125 g/ha ([8]; 125 g ai/ha) | pest or weed control at 31 g/ha ([10]; 31 g ai/ha)
